Reference: patent US20200345746A1, “Oxazine Derivative for Use in the Prevention of Alzheimer's Disease in at Risk Patents” (Novartis AG, priority 2016, published 2020)

Legend:
[1] = Body weight, chronic 8-week dosing in wild-type mice; format: in vivo, mouse; details: C57BL/6 mice, 8 weeks chronic treatment
Procedure: Compound 1 and NB-360 were formulated as a suspension. […] Vehicle: […] in 0.5% methylcellulose in water.
Body weight was taken 3 times per week (Monday, Wednesday, Friday). Subjective scoring of any hair colour changes was performed once weekly (Wednesday). Scores (% of body with grey fur): 0: No change; 1: Spots; 2: >30%; 3: >50%; 4: >75%; 5: 100%. Animals were photo-documented when fur color change was observed. Final fur color scoring was performed blinded and by a person not involved in the study.

[2] = system: amyloid plaques; assay: Plaque histology in APP23 mice (plaque numbers and plaque area); format: in vivo, mouse; details: for Number of large plaques / Number of medium plaques / Number of small plaques: normalized to total area (1000000 * mean ± SEM)
Procedure: Amyloid plaques were stained using a rabbit anti-Aβ primary antibody which recognizes the C-terminal part of the amyloid peptide (the antibody was raised as described in Schrader-Fischer G, Paganetti P A, 1996; Schrader-Fischer G et al., 1997). Activated astrocytes were detected using a commercial rabbit anti-GFAP (reference Z0334 from Dako Schweiz GmbH, Baar, Switzerland).
All stainings were performed using the fully automated instrument Ventana Discovery® Ultra (Roche Diagnostics Schweiz AG, Rotkreuz, Switzerland). All chemicals were provided by Roche Diagnostic.
All study animals were used and brain tissue sections of 3 micrometers were freshly cut and collected on SuperFrost+ slides. The tissues sections were de-paraffinized and rehydrated under solvent-free conditions (EZprep solution) followed by antigen retrieval (demasking) performed by heat retrieval cycles for 32 min in an EDTA based buffer (CC1 solution). Subsequently, slides were blocked for 4 min using the DISCOVERY Inhibitor (reference 07017944001 (Roche)). The primary antibody diluted at 1/20,000 in antibody diluent was manually added on tissue sections and incubated for 1h at room temperature. A short post-fixation (glutaraldehyde at 0.05%) was performed before applying the multimer UltraMap-anti Rabbit HRP ready to use antibody (reference 05269717001) for 16 min.
Detection was performed using the DISCOVERY FITC® following the manufacturer's recommendations. Slides were then heat denaturated at 92° C. for 20 min before a manual application of the second primary antibody (anti-GFAP diluted at 1/2,000) and incubated for 1 h. UltraMap-anti-Rabbit HRP antibody was used again for 20 min to detect GFAP in combination with the DISCOVERY Rhodamine kit (reference 07259883001).
The slides were washed and mounted using Prolong® Gold antifade reagent (reference P36931, ThermoFisher, Switzerland) and further scanned with the Hamamatsu slide scanner instrument (NanoZoomer 2.0 HT, scanning software NDP-Scan Vers. 2.5, Hamamatsu Photonics France, Swiss Office, Solothurn, Switzerland) at the 40× objective. The scanning settings were as follows: the exposure time with the DAPI filter was set at 57 ms as well as for the FITC filter. The exposure time for the TRITC filter (detection of Rhodamine) was set at 14.2 ms.
For the quantitative plaque evaluation based on image analysis, a proprietary image analysis platform (ASTORIA, Automated Stored Image Analysis) was developed based on MS Visual Studio 2010 and many functions from Matrox MIL V9 libraries (Matrox Inc, Quebec, Canada).
For the beta-amyloid plaque and neuroinflammation analysis, the following sequence of steps was performed: • Slides were scanned with Hamamatsu Nanozoomer at 40× magnification. For each fluorescence labelling (DAPI, FITC and TRITC), a separate image was created • Manually outline ROIs (regions of interest) for defining cortex in brain sections for Aβ plaque assessment on the green FITC channel image, then use the resulting outline also for the other two channel images (copy resulting xml files) • Run the in-house developed ImageScope (V12.1.0.5029, Aperio Inc., USA) plug-in for creation and export of *.tif image tiles (at 10× magnification) for each of the 3 fluorescence channels
Image Batch Processing: • Obtain the combined true color image (DAPI, FITC, TRITC) for each section through accessing each individual fluorescence channel image • Segmentation of valid sample (within outlined ROI) from black unstained background • Apply adaptive thresholding technique for segmentation of objects in green channel image […]

[3] = First-in-human study: safety and tolerability; format: in vivo; details: healthy elderly subjects
From the text: The purpose of this study was to determine the single and multiple maximum tolerated dose of Compound 1 and to assess the pharmacokinetic/pharmacodynamic (PK/PD) relationship using Aβ in CSF as primary PD biomarker.

[4] = system: sAPPα; assay: Triton TX-100 soluble sAPPα in APP23 mouse brain; format: in vivo; details: APP23 mice
Procedure: Frozen mouse forebrains were weighed and homogenized in 9 volumes (w/v) of ice-cold TBS-Complete (20 mM Tris-HCl pH 7.4, 137 mM NaCl, 1× Complete [Protease Inhibitor Cocktail Tablets: 1 836 145, Roche Diagnostics GmbH, Penzberg, Germany]) by sonication (90% duty cycle, output control 5, 40-55 pulses, [Sonifier 450, Branson]). After homogenization several 50 μl aliquots were prepared for analysis and were stored at −80° C.
Brain homogenates were extracted with 1% Triton X-100 in buffer and the resulting supernatant was considered to represent soluble forms of APP metabolites. In addition to Aβ40 and 42, we determined the N-terminal APP fragments sAPPα (direct cleavage product of α-secretase) and sAPPβ (Swe) (direct product of BACE1 cleavage). […] Since no change in the APP expression and Aβ generation is known to happen during this age, it is assumed that the increased values in the vehicle group (18-20 mo old) arise from “leakage” out of the Aβ deposits (which increase several fold, see below).

C[C@@]1(c2nc(NC(=O)c3ncc(C(F)(F)F)cc3Cl)ccc2F)CO[C@@](C)(C(F)(F)F)C(N)=N1 [Compound 1, N-(6-((3R,6R)-5-amino-3,6-dimethyl-6-(trifluoromethyl)-3,6-dihydro-2H-1,4-oxazin-3-yl)-5-fluoropyridin-2-yl)-3-chloro-5-(trifluoromethyl)picolinamide]
body weight difference compared to vehicle [1]: No overall significant body weight difference | Number of large plaques ([2]; APP23, 0.03 g/kg food): 0.09 ± 0.02 | Number of medium plaques ([2]; APP23, 0.03 g/kg food): 1.06 ± 0.14 | Number of small plaques ([2]; APP23, 0.03 g/kg food): 10.06 ± 1.55 | Number of large plaques, change vs vehicle ([2]; APP23, 0.03 g/kg vs vehicle): −29.9% | Number of medium plaques, change vs vehicle ([2]; APP23, 0.03 g/kg vs vehicle): −22.9% | Number of small plaques, change vs vehicle ([2]; APP23, 0.03 g/kg vs vehicle): −30.3% | Total plaque area, change vs vehicle ([2]; APP23, 0.03 g/kg vs vehicle): −26.4% | Number of large plaques ([2]; APP23, 0.3 g/kg food): 0.04 ± 0.01 | Number of medium plaques ([2]; APP23, 0.3 g/kg food): 0.58 ± 0.10 | Number of small plaques ([2]; APP23, 0.3 g/kg food): 5.78 ± 0.75 | Number of large plaques, change vs vehicle ([2]; APP23, 0.3 g/kg vs vehicle): −68.2% | Number of medium plaques, change vs vehicle ([2]; APP23, 0.3 g/kg vs vehicle): −57.9% | Number of small plaques, change vs vehicle ([2]; APP23, 0.3 g/kg vs vehicle): −60.0% | Total plaque area, change vs vehicle ([2]; APP23, 0.3 g/kg vs vehicle): −59.5% | reduction of plaque load (immunohistochemistry) ([2]; APP23, high dose group): ~70% | reduction of the increase in plaques and total plaque area ([2]; APP23, high dose treatment group): about 60% | reduction of plaque load (immunohistochemistry) ([2]; APP23, low dose group): ~20% | reduction of the increase in plaques and total plaque area ([2]; APP23, low dose treatment group): about 25% | safety and tolerability ([3]; 300 mg QD over two weeks (highest tested)): safe and tolerated | safety and tolerability ([3]; 750 mg single dose (highest tested)): safe and tolerated | sAPPα change vs vehicle ([4]; 0.03 g/kg vs vehicle): +44% | increase in sAPPα ([4]; 0.3 g/kg dose): 3 fold | sAPPα change vs vehicle ([4]; 0.3 g/kg vs vehicle): +279.8%
